Test results taken from patent US7084176B2, “N-arylphenylacetamide derivatives and medicinal compositions containing the same” (Dainippon Pharmaceutical Co., Ltd., priority 2001, dated 2006).
Each block holds one compound with its values, some of them ahead of it.

Experiments:
Jcl:SD strain male rats = assay: Study of pungency (eye wiping test); assay type: in vivo; settings: a drop into the eye of rats, counted for 3 minutes, average ± S.E.M.
Protocol: Experiment 2: Study of Pungency (Eye Wiping Test)
The pungency of the test compounds were studied referring to the method of Jancso et al. [Acta Physiol. Acad. Sci. Hung., 19, 113–131 (1961)] and the method of Szallasi et al. [Brit. J. Pharmacol., 119, 283–290 (1996)]. A test compound was dissolved in a physiological saline solution containing 10% ethanol and 10% Tween 80 into various concentrations (μg/ml), and a drop of the solution thereof was added dropwise into the eye of Jcl:SD strain male rats (5 to 25 […] per group, body weight; 220 to 280 g). Then, the number of the protective wiping movements with forefoot was counted for 3 minutes, and was considered as an index for pungency. The test results are expressed as average value±S.E.M., and the statistical significant differences between each test compound-treated group and the control group were analyzed using non-parametric Dunnett's multiple range test, and p<0.05 was considered as significant difference.

male Std:ddY mice = assay: Phenyl-1,4-benzoquinone-induced writhing test; assay type: in vivo; settings: Mus musculus, po
Outline: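 Compounds were given orally suspended in 0.5% tragacanth; subcutaneous controls got saline with 10% Tween 80 and 10% ethanol. Writhing counts after phenyl-1,4-benzoquinone were compared with vehicle controls as % inhibition [(A−B)/A]×100. ED50 (mg/kg) was derived by logit analysis.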

[1] = literature report; cited from earlier work
VR1 receptor = settings: animal pain model; VR1 receptor antagonist; cited from earlier work

Number of wiping movements (Jcl:SD strain male rats; concentration 500 μg/ml): no significant increase
Number of wiping movements (Jcl:SD strain male rats; concentration 500 μg/ml, listed as Ex. 225): 4.4 ± 2.1
Number of wiping movements (Jcl:SD strain male rats; concentration 1000 μg/ml): 1.6 ± 1.2
Compound: COc1cc(CC(=O)Nc2ccc3c(c2)C(=O)C(Cc2ccccc2)CC3)ccc1OCCN (stereo not shown) [Example 225, 4-(2-aminoethoxy)-3-methoxy-N-[1-oxo-2-phenylmethyl-1,2,3,4-tetrahydronaphthalen-7-yl]phenylacetamide]
inhibition in vivo at 10 mg/kg (male Std:ddY mice; 1 h, orally administered at a dose of 10 mg/kg, 60 minutes before PBQ, read-out: Inhibitory percentage (%)): 73.5%
ED50 (male Std:ddY mice; oral administration, writhing inhibition, logit analysis, read-out: ED50 (mg/kg po)): 4.79 mg/kg

Compound: CCCCCc1ccc(C(=O)NCc2ccc(O)c(OC)c2)cc1 [N-(4-hydroxy-3-methoxybenzyl)-4-pentylbenzamide]
analgesic effect [1]: no analgesic effect

Compound: Oc1cc2c(cc1O)CN(C(=S)NCCc1ccc(Cl)cc1)CCC2 [capsazepin]
analgesic effect (VR1 receptor): significant analgesic effect
